Source: patent US6525001B1, “Substituted pyrimidine and pyridine herbicides” (Mid-American Commercialization Corporation, priority 1997, dated 2003)

Tests used:
Type in all cases: in vivo
[1] = tested on: bedstraw (Galium aparine); assay: Test B pre-/postemergence; design: key: 0 is no effect; 10 is complete control
Text: (§1) Seeds of bedstraw (Galium aparine), blackgrass (Alopecurus myosuroides), broadleaf signalgrass (Brachiaria decumbens), cocklebur (Xanthium strumarium), corn (Zea mays), crabgrass (Digitaria sanguinalis), giant foxtail (Setaria faberii), lambsquarters (Chenopodium album), momingglory (Ipomoea hederacea), pigweed (Amaranthus retroflexus), rape (Brassica napus), soybean (Glycine max), sugar beet (Beta vulgaris), velvetleaf (Abutilon theophrasti), wheat (Triticum aestivum), wild oat (Avena fatua) and purple nutsedge (Cyperus rotundus) tubers were planted and treated preemergence with test chemicals formulated in a non-phytotoxic solvent mixture which included a surfactant.
(§2) At the same time, these crop and weed species were also treated with postemergence applications of test chemicals formulated in the same manner. Plants ranged in height from 2 to 18 cm (1- to 4-leaf stage) for postemergence treatments. Plant species in the flood test consisted of rice (Oryza sativa), smallflower flatsedge (Cyperus difformis), duck salad (Heteranthera limosa) and bamyardgrass (Echinochloa crus-galli) grown to the 2-leaf stage for testing. Treated plants and controls were maintained in a greenhouse for twelve to sixteen days, after which all species were compared to controls and visually evaluated. Plant response ratings, summarized in Table B, are based on a scale of 0 to 10 where 0 is no effect and 10 is complete control. A dash (−) response means no test result.

[2] = tested on: blackgrass (Alopecurus myosuroides); assay: Test B pre-/postemergence; design: key: 0 is no effect; 10 is complete control
Text: as §1, §2

[3] = tested on: broadleaf signalgrass (Brachiaria decumbens); assay: Test B pre-/postemergence; design: key: 0 is no effect; 10 is complete control
Text: as §1, §2

[4] = tested on: cocklebur (Xanthium strumarium); assay: Test B pre-/postemergence; design: key: 0 is no effect; 10 is complete control
Text: as §1, §2

corn (Zea mays) = assay: Test B pre-/postemergence; design: key: 0 is no effect; 10 is complete control
Text: as §1, §2

[5] = tested on: crabgrass (Digitaria sanguinalis); assay: Test B pre-/postemergence; design: key: 0 is no effect; 10 is complete control
Text: as §1, §2

[6] = tested on: giant foxtail (Setaria faberii); assay: Test B pre-/postemergence; design: key: 0 is no effect; 10 is complete control
Text: as §1, §2

[7] = tested on: momingglory (Ipomoea hederacea); assay: Test B pre-/postemergence; design: key: 0 is no effect; 10 is complete control
Text: as §1, §2

[8] = tested on: pigweed (Amaranthus retroflexus); assay: Test B pre-/postemergence; design: key: 0 is no effect; 10 is complete control
Text: as §1, §2

[9] = tested on: purple nutsedge (Cyperus rotundus); assay: Test B pre-/postemergence; design: key: 0 is no effect; 10 is complete control
Text: as §1, §2

rape (Brassica napus) = assay: Test B pre-/postemergence; design: key: 0 is no effect; 10 is complete control
Text: as §1, §2

soybean (Glycine max) = assay: Test B pre-/postemergence; design: key: 0 is no effect; 10 is complete control
Text: as §1, §2

[10] = tested on: sugar beet (Beta vulgaris); assay: Test B pre-/postemergence; design: key: 0 is no effect; 10 is complete control
Text: as §1, §2

[11] = tested on: velvetleaf (Abutilon theophrasti); assay: Test B pre-/postemergence; design: key: 0 is no effect; 10 is complete control
Text: as §1, §2

[12] = tested on: wheat (Triticum aestivum); assay: Test B pre-/postemergence; design: key: 0 is no effect; 10 is complete control
Text: as §1, §2

wild oat (Avena fatua) = assay: Test B pre-/postemergence; design: key: 0 is no effect; 10 is complete control
Text: as §1, §2

[13] = tested on: bamyardgrass (Echinochloa crus-galli); assay: Test B flood test
In short: (§3)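 Plants were grown to the 2-leaf stage before treatment with test chemical, then held in a greenhouse for twelve to sixteen days. Injury was visually rated against untreated controls on a 0–10 scale, where 0 is no effect and 10 is complete control.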

[14] = tested on: duck salad (Heteranthera limosa); assay: Test B flood test
In short: as §3

rice (Oryza sativa) = assay: Test B flood test
In short: as §3

[15] = tested on: smallflower flatsedge (Cyperus difformis); assay: Test B flood test
In short: as §3

[16] = Rate 62 g/ha, Postemergence (flood test)
[17] = Rate 125 g/ha, Postemergence, flood test
[18] = Rate 250 g/ha, Postemergence (flood test species)

Cc1cnc(-c2ccc(C(F)(F)F)cc2)nc1C(C#N)c1cccc(C(F)(F)F)c1 (racemic) [Compound 17]
1: Bedstraw plant response rating ([1]; Rate 62 g/ha, Preemergence) | Plant response rating, Corn (corn (Zea mays); Rate 250 g/ha, Preemergence) | Morningglory plant response rating ([7]; Rate 125 g/ha, Preemergence) | Sugarbeets plant response rating ([10]; Rate 62 g/ha, Preemergence) | Velvetleaf plant response rating ([11]; Rate 125 g/ha, Preemergence) | Plant response rating, Velvetleaf ([11]; Rate 250 g/ha, Preemergence) | Wheat plant response rating ([12]; Rate 125 g/ha, Preemergence)
5: Plant response rating, Bedstraw ([1]; Rate 250 g/ha, Preemergence) | Plant response rating, B. signalgrass ([3]; Rate 125 g/ha, Postemergence) | Giant foxtail plant response rating ([6]; Rate 62 g/ha, Preemergence) | Plant response rating, Giant foxtail ([6]; Rate 250 g/ha, Postemergence) | Wild oats plant response rating (wild oat (Avena fatua); Rate 125 g/ha, Preemergence) | Plant response rating, Wild oats (wild oat (Avena fatua); Rate 250 g/ha, Postemergence) | Plant response rating, Ducksalad [14, 17] | Plant response rating, Ducksalad [14, 18] | Plant response rating, S. Flatsedge [15, 18]
3: Bedstraw plant response rating ([1]; Rate 125 g/ha, Preemergence) | Plant response rating, Blackgrass ([2]; Rate 62 g/ha, Postemergence) | B. signalgrass plant response rating ([3]; Rate 62 g/ha, Preemergence) | Plant response rating, Corn (corn (Zea mays); Rate 250 g/ha, Postemergence) | Crabgrass plant response rating ([5]; Rate 62 g/ha, Preemergence) | Plant response rating, Rape (rape (Brassica napus); Rate 250 g/ha, Preemergence) | Plant response rating, Soybean (soybean (Glycine max); Rate 62 g/ha, Postemergence) | Plant response rating, Soybean (soybean (Glycine max); Rate 125 g/ha, Postemergence) | Plant response rating, Wheat ([12]; Rate 62 g/ha, Postemergence) | Plant response rating, Wheat ([12]; Rate 125 g/ha, Postemergence) | Plant response rating, Wheat ([12]; Rate 250 g/ha, Preemergence) | Plant response rating, Wild oats (wild oat (Avena fatua); Rate 62 g/ha, Postemergence) | Plant response rating, Ducksalad [14, 16] | Plant response rating, S. Flatsedge [15, 17]
0: Cocklebur plant response rating ([4]; Rate 62 g/ha, Preemergence) | Cocklebur plant response rating ([4]; Rate 125 g/ha, Preemergence) | Plant response rating, Cocklebur ([4]; Rate 250 g/ha, Preemergence) | Corn plant response rating (corn (Zea mays); Rate 62 g/ha, Preemergence) | Corn plant response rating (corn (Zea mays); Rate 125 g/ha, Preemergence) | Morningglory plant response rating ([7]; Rate 62 g/ha, Preemergence) | Plant response rating, Nutsedge ([9]; Rate 62 g/ha, Postemergence) | Nutsedge plant response rating ([9]; Rate 62 g/ha, Preemergence) | Plant response rating, Nutsedge ([9]; Rate 125 g/ha, Postemergence) | Nutsedge plant response rating ([9]; Rate 125 g/ha, Preemergence) | Plant response rating, Nutsedge ([9]; Rate 250 g/ha, Postemergence) | Plant response rating, Nutsedge ([9]; Rate 250 g/ha, Preemergence) | Rape plant response rating (rape (Brassica napus); Rate 62 g/ha, Preemergence) | Soybean plant response rating (soybean (Glycine max); Rate 62 g/ha, Preemergence) | Soybean plant response rating (soybean (Glycine max); Rate 125 g/ha, Preemergence) | Plant response rating, Soybean (soybean (Glycine max); Rate 250 g/ha, Preemergence) | Velvetleaf plant response rating ([11]; Rate 62 g/ha, Preemergence) | Wheat plant response rating ([12]; Rate 62 g/ha, Preemergence)
8: Plant response rating, Bedstraw ([1]; Rate 62 g/ha, Postemergence) | Plant response rating, Cocklebur ([4]; Rate 125 g/ha, Postemergence) | Plant response rating, Cocklebur ([4]; Rate 250 g/ha, Postemergence) | Crabgrass plant response rating ([5]; Rate 125 g/ha, Preemergence) | Plant response rating, Morningglory ([7]; Rate 125 g/ha, Postemergence) | Plant response rating, Morningglory ([7]; Rate 250 g/ha, Postemergence) | Plant response rating, Rape (rape (Brassica napus); Rate 125 g/ha, Postemergence) | Plant response rating, Rape (rape (Brassica napus); Rate 250 g/ha, Postemergence) | Plant response rating, Soybean (soybean (Glycine max); Rate 250 g/ha, Postemergence) | Sugarbeets plant response rating ([10]; Rate 125 g/ha, Preemergence) | Plant response rating, Wild oats (wild oat (Avena fatua); Rate 250 g/ha, Preemergence)
4: Plant response rating, B. signalgrass ([3]; Rate 62 g/ha, Postemergence) | Plant response rating, Cocklebur ([4]; Rate 62 g/ha, Postemergence) | Plant response rating, Crabgrass ([5]; Rate 62 g/ha, Postemergence) | Plant response rating, Crabgrass ([5]; Rate 125 g/ha, Postemergence) | Plant response rating, Crabgrass ([5]; Rate 250 g/ha, Postemergence) | Plant response rating, Giant foxtail ([6]; Rate 125 g/ha, Postemergence) | Redroot pigweed plant response rating ([8]; Rate 62 g/ha, Preemergence) | Plant response rating, Velvetleaf ([11]; Rate 125 g/ha, Postemergence) | Plant response rating, Wheat ([12]; Rate 250 g/ha, Postemergence) | Plant response rating, Wild oats (wild oat (Avena fatua); Rate 125 g/ha, Postemergence) | Plant response rating, Barnyardgrass [13, 16] | Plant response rating, Barnyardgrass [13, 17] | Plant response rating, Rice (rice (Oryza sativa); [16]) | Plant response rating, Rice (rice (Oryza sativa); [17])
6: Plant response rating, Blackgrass ([2]; Rate 125 g/ha, Postemergence) | Blackgrass plant response rating ([2]; Rate 125 g/ha, Preemergence) | Plant response rating, Barnyardgrass [13, 18] | Plant response rating, Rice (rice (Oryza sativa); [18])
9: Plant response rating, Bedstraw ([1]; Rate 125 g/ha, Postemergence) | Plant response rating, Bedstraw ([1]; Rate 250 g/ha, Postemergence) | Plant response rating, Blackgrass ([2]; Rate 250 g/ha, Preemergence) | Plant response rating, B. signalgrass ([3]; Rate 250 g/ha, Preemergence) | Plant response rating, Crabgrass ([5]; Rate 250 g/ha, Preemergence) | Plant response rating, Redroot pigweed ([8]; Rate 62 g/ha, Postemergence) | Redroot pigweed plant response rating ([8]; Rate 125 g/ha, Preemergence) | Plant response rating, Sugarbeets ([10]; Rate 62 g/ha, Postemergence) | Plant response rating, Sugarbeets ([10]; Rate 250 g/ha, Preemergence)
7: Plant response rating, Blackgrass ([2]; Rate 250 g/ha, Postemergence) | B. signalgrass plant response rating ([3]; Rate 125 g/ha, Preemergence) | Plant response rating, B. signalgrass ([3]; Rate 250 g/ha, Postemergence) | Plant response rating, Morningglory ([7]; Rate 62 g/ha, Postemergence) | Plant response rating, Rape (rape (Brassica napus); Rate 62 g/ha, Postemergence) | Plant response rating, Velvetleaf ([11]; Rate 250 g/ha, Postemergence)
10: Giant foxtail plant response rating ([6]; Rate 125 g/ha, Preemergence) | Plant response rating, Giant foxtail ([6]; Rate 250 g/ha, Preemergence) | Plant response rating, Redroot pigweed ([8]; Rate 125 g/ha, Postemergence) | Plant response rating, Redroot pigweed ([8]; Rate 250 g/ha, Postemergence) | Plant response rating, Redroot pigweed ([8]; Rate 250 g/ha, Preemergence) | Plant response rating, Sugarbeets ([10]; Rate 125 g/ha, Postemergence) | Plant response rating, Sugarbeets ([10]; Rate 250 g/ha, Postemergence)
2: Blackgrass plant response rating ([2]; Rate 62 g/ha, Preemergence) | Plant response rating, Corn (corn (Zea mays); Rate 62 g/ha, Postemergence) | Plant response rating, Corn (corn (Zea mays); Rate 125 g/ha, Postemergence) | Plant response rating, Giant foxtail ([6]; Rate 62 g/ha, Postemergence) | Plant response rating, Morningglory ([7]; Rate 250 g/ha, Preemergence) | Rape plant response rating (rape (Brassica napus); Rate 125 g/ha, Preemergence) | Plant response rating, Velvetleaf ([11]; Rate 62 g/ha, Postemergence) | Wild oats plant response rating (wild oat (Avena fatua); Rate 62 g/ha, Preemergence) | Plant response rating, S. Flatsedge [15, 16]
